# Source: publication PMC6657668, “Porcine Beta-Defensin 2 Provides Protection Against Bacterial Infection by a Direct Bactericidal Activity and Alleviates Inflammation via Interference With the TLR4/NF-κB Pathway” (Frontiers in Immunology, 2019)
# Read-outs that look alike come from different tables or passages of the source. Where no end group is shown, it is not given here.
# T1: TLR4, purified recombinant protein (Cloud-clone # RPA753Mu01) (UniProt Q9QUK6 26-638)
# T1 construct: Toll-like receptor 4 (TLR4), bought recombinant protein; the vendor's data sheet is needed; also called purified TLR4; source: bought: Cloud-clone (# RPA753Mu01)
# T1 sequence (looked up): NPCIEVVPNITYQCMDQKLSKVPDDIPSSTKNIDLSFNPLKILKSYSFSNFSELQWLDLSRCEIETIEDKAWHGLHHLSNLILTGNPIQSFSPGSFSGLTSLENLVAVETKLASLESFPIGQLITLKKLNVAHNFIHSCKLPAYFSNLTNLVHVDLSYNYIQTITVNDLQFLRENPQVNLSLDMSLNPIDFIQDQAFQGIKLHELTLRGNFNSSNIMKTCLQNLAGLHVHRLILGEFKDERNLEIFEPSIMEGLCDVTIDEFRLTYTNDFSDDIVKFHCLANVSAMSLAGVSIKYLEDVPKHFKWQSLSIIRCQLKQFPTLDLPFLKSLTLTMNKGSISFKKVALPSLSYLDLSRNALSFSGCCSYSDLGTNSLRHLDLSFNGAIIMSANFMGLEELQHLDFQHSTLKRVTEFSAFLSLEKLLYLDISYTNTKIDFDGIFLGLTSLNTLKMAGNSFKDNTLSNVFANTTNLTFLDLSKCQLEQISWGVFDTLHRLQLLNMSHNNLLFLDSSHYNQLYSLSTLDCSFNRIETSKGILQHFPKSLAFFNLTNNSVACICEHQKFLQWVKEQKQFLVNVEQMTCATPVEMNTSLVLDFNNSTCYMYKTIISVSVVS
# B1: Porcine beta-defensin 2 (PBD-2), synthetic mature peptide (peptide)
# peptide: DHYICAKKGGTCNFSPCPLFNRIEGTCYSGKAKCCIR
# modifications: ends and bridges not checked; cysteine pairing not given here
# notes: mature peptide of porcine beta-defensin 2 (PBD-2), pig; also called synthetic PBD-2; source: synthetic peptide (Neweast Biosciences, # 60001)
# Legend:
# RAW 264.7 cells = assay: Cytokine levels of RAW 264.7 cells after treatment with LPS (ELISA), with or without pathway inhibitor; format: cell-based, mouse; conditions: 1 h pre-treatment, LPS 1 μg/ml, 16 h, n = 6
# Protocol: RAW 264.7 cells and RAW 264.7 cells stably expressing PBD-2 were pre-treated with S. Typhimurium at MOI = 10:1 for 1 h or with LPS (1 μg/ml) for 16 h, washed with PBS twice and incubated with RPMI 1640 that contained PBS or PBD-2 (10 μg/mL) for 16 h. RAW 264.7 cells stably expressing PBD-2 were maintained in RPMI 1640 that contained PBS for 16 h (n = 6 for each group). The expression levels of proinflammatory cytokines in the cell culture supernatant were determined through ELISA in accordance with the manufacturer's instruction.
# In the inhibition assay, RAW 264.7 cells were pre-treated with 4 μg/ml NF-κB inhibitor (Celastrol, # ant-cls, InvivoGen®, San Diego, CA, USA) or 1 μg/ml TLR4 inhibitor (CLI-095, # tlrl-cli95, InvivoGen®, San Diego, CA, USA) for 1 h. Subsequently, RAW 264.7 cells were treated with LPS (1 μg/ml) alone or together with PBD-2 (10 μg/mL) for 16 h (n = 6 each group). RAW 264.7 cells treated with PBS were used as control. The levels of the cytokines in the supernatant of the cells were detected through ELISA.
# NF-κB = NF-κB promoter activity, luciferase reporter assay in RAW 264.7 cells; format: cell-based, mouse; conditions: CLI-095 1 μg/ml, 1 h pre-treatment; LPS 1 μg/ml, 24 h; n = 6
# Protocol: A luciferase reporter assay was used to detect the promoter activity of NF-κB. RAW 264.7 cells were seeded in a 24-well plate for 24 h and then cotransfected with 800 ng/well of the NF-κB reporter plasmid (pGL3-Basic) and 20 ng/well of pLR-TK. WT […] luciferase (Rluc) served as the reporter gene control vector. […] In the inhibition assay, the cells were pre-treated with 1 μg/ml TLR4 inhibitor for 1 h and treated with LPS (1 μg/ml) alone or together with PBD-2 (10 μg/mL) for 24 h (n = 6 each group). Luciferase units were detected to show the promoter activity of NF-κB ([28]).
# [1] = cited from earlier work
# From the text: (§1) The mechanism of how AMPs modulate immune signaling pathways has yet to be fully understood. […] Instead, it interacted with TLR4. […] Therefore, th ...
# TLR3 = TLR3 ligand poly (I:C); ref [6]; cited from earlier work
# From the text: as §1
# [2] = test system: release of inflammatory cytokines; conditions: cited from earlier work
# From the text: Bacterial drug resistance has become a global concern. Endeavors in search for antibiotic substitutes are desperately needed. Antimicrobial peptides (AMPs) are natural anti-infective agents identified in various species and implicated in innate immunity ([1]). […] AMPs not only have a direct bactericidal activity but also regulate immune and inflammatory responses ([3]). As bactericides, cationic AMPs exert bactericidal act ... || The colitis caused by S. Typhimurium mainly results from intestinal mucosal inflammation after the breakage of intestinal epithelial barrier by pathogens ([26]).
# Bordetella pertussis = conditions: pigs; ref [35]; cited from earlier work
# From the text: (§2) The antibiotic resistance of pathogenic bacteria has become a global threat ([30]). Defensins are natural peptides secreted by many species and implicated in resisting bacterial infection ([31]). PBD-2 is one of the defensins expressed in pigs. […] The invasion of S. Typhimurium can increase the expression of PBD-2 in porcine epithelial cells ([32]). […] PBD-2 also improves the growth perf ...
# [3] = test system: signaling pathways downstream of TLR4; conditions: MyD88-dependent and MyD88-independent pathways; ref [50]; cited from earlier work
# From the text: as §1
# TLR2 = conditions: ref [50]; cited from earlier work
# From the text: as §1
# TLR1 = conditions: ref [50]; cited from earlier work
# From the text: as §1
# [4] = test system: intestinal epithelial cells; conditions: cells transfected with genes encoding hBD-2 and hBD-3, infected with S. Typhimurium; vs untransfected; ref [44]; cited from earlier work
# From the text: The colitis caused by S. Typhimurium mainly results from intestinal mucosal inflammation after the breakage of intestinal epithelial barrier by pathogens ([26]).
# [5] = cited from earlier work; remark: listed apart in the source
# From the text: as §2
# [6] = target: T1, TLR4, purified recombinant protein …; assay: ITC; Nano-ITC, 25°C; PBD-2 in the syringe (0.215 mM), TLR4 in the calorimeter cell (0.016 to 0.050 mM); control: PBD-2 into PBS; conditions: both partners purified
molecule,measurement,setting,value
"CC1=C(O)C(=O)C=C2C1=CC=C1[C@@]2(C)CC[C@@]2(C)[C@@H]3C[C@](C)(C(=O)O)CC[C@]3(C)CC[C@]12C [NF-κB inhibitor, Celastrol, reference compound]",secretion of IL-1β triggered by LPS,RAW 264.7 cells; Celastrol 4 μg/ml,"significantly reduced the secretion of TNF-α, IL-6, and IL-1β triggered by LPS"
same,secretion of IL-6 triggered by LPS,RAW 264.7 cells; Celastrol 4 μg/ml,"significantly reduced the secretion of TNF-α, IL-6, and IL-1β triggered by LPS"
same,secretion of TNF-α triggered by LPS,RAW 264.7 cells; Celastrol 4 μg/ml,"significantly reduced the secretion of TNF-α, IL-6, and IL-1β triggered by LPS"
"CCOC(=O)C1=CCCC[C@H]1S(=O)(=O)Nc1ccc(F)cc1Cl [TLR4 inhibitor, reference compound]","LPS-induced NF-κB promoter activity, TLR4 inhibitor",NF-κB,inhibited the LPS-induced promoter activity of NF-κB in RAW 264.7
same,secretion of IL-1β triggered by LPS,RAW 264.7 cells; CLI-095 1 μg/ml,"significantly reduced the secretion of TNF-α, IL-6, and IL-1β triggered by LPS"
same,secretion of IL-6 triggered by LPS,RAW 264.7 cells; CLI-095 1 μg/ml,"significantly reduced the secretion of TNF-α, IL-6, and IL-1β triggered by LPS"
same,secretion of TNF-α triggered by LPS,RAW 264.7 cells; CLI-095 1 μg/ml,"significantly reduced the secretion of TNF-α, IL-6, and IL-1β triggered by LPS"
"LL-37: human AMP (LLGDFFRKSKEKIGKEFKRIVQRIKDFLRNLVPRTES; Antibacterial peptide LL-37; UniProt P49913 134-170, looked up)",anti-endotoxin ability,[1]; ref [48],exert anti-endotoxin abilities by either disrupting LPS or inhibiting the LPS-induced production of TNF-α
same,TLR3-dependent immune responses,TLR3,TLR3-dependent immune responses are blocked by LL-37
same,release of inflammatory cytokines,[2]; ref [5],suppress the release of inflammatory cytokines
same,suppression of inflammation,[2]; ref [6],can suppress inflammation by inhibiting specific inflammatory signaling pathways
PR39,anti-endotoxin ability,[1]; ref [49],exert anti-endotoxin abilities by either disrupting LPS or inhibiting the LPS-induced production of TNF-α
"Porcine beta-defensin 1: another defensin from pigs and homolog of human beta-defensin 2 (NIGNSVSCLRNKGVCMPGKCAPKMKQIGTCGMPQVKCCKRK; ends and bridges not checked; cysteine pairing not given here; UniProt O62697 24-64, looked up)",protection against Bordetella pertussis infection,Bordetella pertussis,protects against Bordetella pertussis infection in pigs
"hBD3: human β-defensin 3 (GIINTLQKYYCRVRGGRCAVLSCLPKEEQIGKCSTRGRKCCRRKK; ends and bridges not checked; cysteine pairing not given here; UniProt P81534 23-67, looked up)",LPS-induced inflammation,[3],could inhibit the LPS-induced inflammation by repressing the signaling pathways downstream of TLR4
same,interaction with TLR2,TLR2,"can interact with TLR1 and TLR2, leading to the activation of the MyD88-dependent pathway"
same,binding to LPS,[1]; ref [50],does not bind to LPS
same,interaction with TLR1,TLR1,"can interact with TLR1 and TLR2, leading to the activation of the MyD88-dependent pathway"
same,suppression of inflammation,[2]; ref [7],can suppress inflammation by inhibiting specific inflammatory signaling pathways
same,TNF-α and IL-6 secretion,[2]; ref [43],suppressing TNF-α and IL-6 secretion
same,expression level of proinflammatory cytokines,[4],decreased expression level of proinflammatory cytokines
"hBD-1: β-defensin of human (DHYNCVSSGGQCLYSACPIFTKIQGTCYRGKAKCCK; ends and bridges not checked; cysteine pairing not given here; UniProt P60022 33-68, looked up)",antibacterial effects in vivo,[5]; ref [36],have antibacterial effects in vivo
"hBD-2: β-defensin of human (GIGDPVTCLKSGAICHPVFCPRRYKQIGTCGLPGTKCCKKP; ends and bridges not checked; cysteine pairing not given here; UniProt O15263 24-64, looked up)",antibacterial effects in vivo,[5]; ref [36],have antibacterial effects in vivo
same,expression level of proinflammatory cytokines,[4],decreased expression level of proinflammatory cytokines
"rMBD3: β-defensin 3 (rMBD3) of mice (KKINNPVSCLRKGGRCWNRCIGNTRQIGSCGVPFLKCCKRK; ends and bridges not checked; cysteine pairing not given here; UniProt Q9WTL0 23-63, looked up)",antibacterial effects in vivo,"[5]; mice, ref [37]",have antibacterial effects in vivo
B1,Kd,[6],3.75 µM
